Source: PubChem BioAssay AID1963982 (Molecular Pharmacology Branch, DTP, NCI, 2024)

System: 313798-341-R-J2-PDC spheroids, viability
Assay: Anticancer human tumor 313798-341-R-J2-PDC patient-derived cervical squamous cell carcinoma cell line growth inhibition [PI3K]
Details: spheroids with HUVEC and MSC; for IC50: curve of first compound; for viability, T/C: stronger effect = lower value
Summary of the method: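 Combination activity was assessed by viability in multicellular tumor spheroids carrying HUVEC and MSC components. Agents were tested with PI3K inhibitors from a Cmax-based top dose (or 10 microM) downward in half-log increments.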
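Also: spheroids exposed to compounds for seven days.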
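For viability, T/C in this document: 100% = DMSO vehicle control viability.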

SMILES: Cn1ncc(Cl)c1-c1cc(C(=O)NC(CN)Cc2cccc(F)c2)sc1Cl (centres undefined) + CC(Nc1ncnc2nc[nH]c12)c1cc2cccc(Cl)c2c(=O)n1-c1ccccc1
- IC50 (second compound 0.0316 µM): 777 nM
- IC50 (second compound 0.1 µM): 984 nM
- IC50 (second compound 0.316 µM): 1100 nM
- IC50 (second compound 1 µM): 1080 nM
- IC50 (second compound 3.16 µM): 790 nM
- IC50 (second compound 10 µM): 785 nM
- viability, T/C (second compound 0.0316 µM, first compound 0.0316 µM): 86.5%
- viability, T/C (second compound 0.0316 µM, first compound 0.1 µM): 82.8%
- viability, T/C (second compound 0.0316 µM, first compound 0.316 µM): 73.1%
- viability, T/C (second compound 0.0316 µM, first compound 1 µM): 43.1%
- viability, T/C (second compound 0.0316 µM, first compound 3.16 µM): 34.9%
- viability, T/C (second compound 0.0316 µM, first compound 10 µM): 30.9%
- viability, T/C (second compound 0.1 µM, first compound 0.0316 µM): 108%
- viability, T/C (second compound 0.1 µM, first compound 0.1 µM): 89.5%
- viability, T/C (second compound 0.1 µM, first compound 0.316 µM): 84.4%
- viability, T/C (second compound 0.1 µM, first compound 1 µM): 48.6%
- viability, T/C (second compound 0.1 µM, first compound 3.16 µM): 32.2%
- viability, T/C (second compound 0.1 µM, first compound 10 µM): 34.8%
- viability, T/C (second compound 0.316 µM, first compound 0.0316 µM): 97.5%
- viability, T/C (second compound 0.316 µM, first compound 0.1 µM): 92.8%
- viability, T/C (second compound 0.316 µM, first compound 0.316 µM): 70.8%
- viability, T/C (second compound 0.316 µM, first compound 1 µM): 54.9%
- viability, T/C (second compound 0.316 µM, first compound 3.16 µM): 32.2%
- viability, T/C (second compound 0.316 µM, first compound 10 µM): 30.9%
- viability, T/C (second compound 1 µM, first compound 0.0316 µM): 101%
- viability, T/C (second compound 1 µM, first compound 0.1 µM): 88.2%
- viability, T/C (second compound 1 µM, first compound 0.316 µM): 77.9%
- viability, T/C (second compound 1 µM, first compound 1 µM): 47.5%
- viability, T/C (second compound 1 µM, first compound 3.16 µM): 38.8%
- viability, T/C (second compound 1 µM, first compound 10 µM): 29%
- viability, T/C (second compound 3.16 µM, first compound 0.0316 µM): 107%
- viability, T/C (second compound 3.16 µM, first compound 0.1 µM): 86.1%
- viability, T/C (second compound 3.16 µM, first compound 0.316 µM): 62.4%
- viability, T/C (second compound 3.16 µM, first compound 1 µM): 49.3%
- viability, T/C (second compound 3.16 µM, first compound 3.16 µM): 32.5%
- viability, T/C (second compound 3.16 µM, first compound 10 µM): 30.8%
- viability, T/C (second compound 10 µM, first compound 0.0316 µM): 87%
- viability, T/C (second compound 10 µM, first compound 0.1 µM): 78.1%
- viability, T/C (second compound 10 µM, first compound 0.316 µM): 67.8%
- viability, T/C (second compound 10 µM, first compound 1 µM): 46.5%
- viability, T/C (second compound 10 µM, first compound 3.16 µM): 27.7%
- viability, T/C (second compound 10 µM, first compound 10 µM): 25.8%

SMILES: Cn1cnc2c(F)c(Nc3ccc(Br)cc3Cl)c(C(=O)NOCCO)cc21 + COc1c(OCCCN2CCOCC2)ccc2c3n(c(=NC(=O)c4cnc(N)nc4)nc12)CCN3
- IC50 (second compound 0.00316 µM): > 3000 nM
- IC50 (second compound 0.01 µM): > 3000 nM
- IC50 (second compound 0.0316 µM): 2960 nM
- IC50 (second compound 0.1 µM): < 9.49 nM
- IC50 (second compound 0.316 µM): < 9.49 nM
- IC50 (second compound 1 µM): < 9.49 nM
- viability, T/C (second compound 0.00316 µM, first compound 0.00949 µM): 88%
- viability, T/C (second compound 0.00316 µM, first compound 0.03 µM): 93.1%
- viability, T/C (second compound 0.00316 µM, first compound 0.0949 µM): 95.2%
- viability, T/C (second compound 0.00316 µM, first compound 0.3 µM): 87.6%
- viability, T/C (second compound 0.00316 µM, first compound 0.949 µM): 97.3%
- viability, T/C (second compound 0.00316 µM, first compound 3 µM): 75.7%
- viability, T/C (second compound 0.01 µM, first compound 0.00949 µM): 93.1%
- viability, T/C (second compound 0.01 µM, first compound 0.03 µM): 100%
- viability, T/C (second compound 0.01 µM, first compound 0.0949 µM): 97.3%
- viability, T/C (second compound 0.01 µM, first compound 0.3 µM): 101%
- viability, T/C (second compound 0.01 µM, first compound 0.949 µM): 82%
- viability, T/C (second compound 0.01 µM, first compound 3 µM): 70.3%
- viability, T/C (second compound 0.0316 µM, first compound 0.00949 µM): 84.8%
- viability, T/C (second compound 0.0316 µM, first compound 0.03 µM): 75.5%
- viability, T/C (second compound 0.0316 µM, first compound 0.0949 µM): 75%
- viability, T/C (second compound 0.0316 µM, first compound 0.3 µM): 62.5%
- viability, T/C (second compound 0.0316 µM, first compound 0.949 µM): 73.4%
- viability, T/C (second compound 0.0316 µM, first compound 3 µM): 46.8%
- viability, T/C (second compound 0.1 µM, first compound 0.00949 µM): 45.2%
- viability, T/C (second compound 0.1 µM, first compound 0.03 µM): 35.3%
- viability, T/C (second compound 0.1 µM, first compound 0.0949 µM): 32.3%
- viability, T/C (second compound 0.1 µM, first compound 0.3 µM): 31.6%
- viability, T/C (second compound 0.1 µM, first compound 0.949 µM): 26.4%
- viability, T/C (second compound 0.1 µM, first compound 3 µM): 17.1%
- viability, T/C (second compound 0.316 µM, first compound 0.00949 µM): 12.5%
- viability, T/C (second compound 0.316 µM, first compound 0.03 µM): 9.53%
- viability, T/C (second compound 0.316 µM, first compound 0.0949 µM): 5.72%
- viability, T/C (second compound 0.316 µM, first compound 0.3 µM): 4.75%
- viability, T/C (second compound 0.316 µM, first compound 0.949 µM): 3.32%
- viability, T/C (second compound 0.316 µM, first compound 3 µM): 2.54%
- viability, T/C (second compound 1 µM, first compound 0.00949 µM): 10.1%
- viability, T/C (second compound 1 µM, first compound 0.03 µM): 5.21%
- viability, T/C (second compound 1 µM, first compound 0.0949 µM): 3.78%
- viability, T/C (second compound 1 µM, first compound 0.3 µM): 3.94%
- viability, T/C (second compound 1 µM, first compound 0.949 µM): 2.23%
- viability, T/C (second compound 1 µM, first compound 3 µM): 1%
